We go through 21 compounds from patent US12162893B2 (Erasca, Inc., priority 2020, dated 2024).

The target in the assay is T1, mutant G12C K-RAS (Homo sapiens, UniProt P01116, G12C).
T1 construct: made in house; host or cells: E. coli BL21
Description: covalent adduct formation (CAF) with mutant G12C K-RAS. It counts as binding. Particulars: for % CAF @ 10 μM,1 h: Table 6; for % CAF (60 min): after 60 minutes at 10 micromolar. The method, then: Embodiments disclosed herein are further illustrated by the following examples in Tables 1-4 and the Examples hereinbelow. The Tables indicate the compound number, structure, the observed mass spectral molecular weight peak, and covalent adduct formation (CAF) with a mutant G12C K-RAS after 60 minutes at a concentration of 10 micromolar.

The mark [1] stands for this setting: Table 2, Pyrimidone Core-Morpholine Substituted.

Turning to `C=CC(=O)N1C[C@H](C)N(c2nc(=O)n3c4c(c(-c5ccc(F)cc5F)c(Cl)cc24)OC[C@H]3CN(C)CC(F)(F)F)C[C@H]1C` [Example 235, (3R)-7-((2S,5R)-4-acryloyl-2,5-dimethylpiperazin-1-yl)-9-chloro-10-(2,4-difluorophenyl)-3-((methyl(2,2,2-trifluoroethyl)amino)methyl)-2H-[1,4]oxazino[2,3,4-ij]quinazolin-5(3H)-one], the “% CAF @ 10 μM,1 h” value amounted to 44.5%.

Take `C=CC(=O)N1CCN(c2nc(=O)n3c4c(c(-c5ccc(F)cc5F)cc(CC#N)c24)OCC3)CC1` [Example 289, 2-(7-(4-acryloylpiperazin-1-yl)-10-(2,4-difluorophenyl)-5-oxo-2,3-dihydro-5H-[1,4]oxazino[2,3,4-ij]quinazolin-8-yl)acetonitrile]: the “% CAF @ 10 μM,1 h” value amounted to 13.5%.

For `C=CC(=O)N1C[C@H](C)N(c2nc(=O)n3c4c(c(-c5c(O)cccc5F)c(Cl)cc24)OC[C@@H]3CCCN2CCOCC2)C[C@H]1C` (atropisomer, axis not shown) [Example 225, (3S,10R)-7-((2S,5R)-4-acryloyl-2,5-dimethylpiperazin-1-yl)-9-chloro-10-(2-fluoro-6-hydroxyphenyl)-3-(3-morpholinopropyl)-2,3-dihydro-5H-[1,4]oxazino[2,3,4-ij]quinazolin-5-one], the “% CAF @ 10 μM,1 h” value turned out to be 4.4%.

`C=CC(=O)N1C[C@H](C)N(c2nc(=O)n3c4c(c(-c5ccc(F)cc5F)c(Cl)cc24)OC[C@@H]3CCCN2C[C@@H]3C[C@H]2CO3)C[C@H]1C` [Example 266, (3S)-3-(3-((1S,4S)-2-oxa-5-azabicyclo[2.2.1]heptan-5-yl)propyl)-7-((2S,5R)-4-acryloyl-2,5-dimethylpiperazin-1-yl)-9-chloro-10-(2,4-difluorophenyl)-2,3-dihydro-5H-[1,4]oxazino[2,3,4-ij]quinazolin-5-one]: the “% CAF @ 10 μM,1 h” value stood at 59.2%.

In the case of `C=CC(=O)N1C[C@H](C)N(c2nc(=O)n3c4c(c(-c5ccc(F)cc5F)c(Cl)cc24)OC[C@@H]3CN2CCN(C)CC2)C[C@H]1C` [Example 257, (3S)-7-((2S,5R)-4-acryloyl-2,5-dimethylpiperazin-1-yl)-9-chloro-10-(2,4-difluorophenyl)-3-((4-methylpiperazin-1-yl)methyl)-2H-[1,4]oxazino[2,3,4-ij]quinazolin-5(3H)-one], the “% CAF @ 10 μM,1 h” value is reported as 94.8%.

With `C=CC(=O)N1C[C@H](C)N(c2nc(=O)n3c4c(c(-c5ccc(F)cc5F)c(Cl)cc24)OC[C@@H]3CCCN2CCS(=O)(=O)CC2)C[C@H]1C` [Example 255, (3S)-7-((2S,5R)-4-acryloyl-2,5-dimethylpiperazin-1-yl)-9-chloro-10-(2,4-difluorophenyl)-3-(3-(1,1-dioxidothiomorpholino)propyl)-2,3-dihydro-5H-[1,4]oxazino[2,3,4-ij]quinazolin-5-one], the “% CAF @ 10 μM,1 h” value was determined as 86.8%.

Consider `C=CC(=O)N1C[C@H](C)N(c2nc(=O)n3c4c(c(-c5c(C)ccc6[nH]nnc56)ccc24)OCC3)C[C@H]1C` [Example 219, 7-((2S,5R)-4-acryloyl-2,5-dimethylpiperazin-1-yl)-10-(5-methyl-1H-benzo[d][1,2,3]triazol-4-yl)-2,3-dihydro-5H-[1,4]oxazino[2,3,4-ij]quinazolin-5-one], for which the “% CAF @ 10 μM,1 h” value is 0%.

As to `C=CC(=O)N1C[C@H](C)N(c2nc(=O)n3c4c(c(-c5ccc(F)cc5F)c(Cl)cc24)OC[C@@H]3Cn2cccn2)C[C@H]1C` [Example 236, (3S)-3-((1H-pyrazol-1-yl)methyl)-7-((2S,5R)-4-acryloyl-2,5-dimethylpiperazin-1-yl)-9-chloro-10-(2,4-difluorophenyl)-2H-[1,4]oxazino[2,3,4-ij]quinazolin-5(3H)-one], the “% CAF @ 10 μM,1 h” value was found to be 60.9%.

For `C=CC(=O)N1C[C@H](C)N(c2nc(=O)n3c4c(c(-c5c(O)cccc5F)c(Cl)cc24)OC[C@@H]3CCCN2CCOCC2)C[C@H]1C` (atropisomer, axis not shown) [Example 265, (3S,10S)-7-((2S,5R)-4-acryloyl-2,5-dimethylpiperazin-1-yl)-9-chloro-10-(2-fluoro-6-hydroxyphenyl)-3-(3-morpholinopropyl)-2,3-dihydro-5H-[1,4]oxazino[2,3,4-ij]quinazolin-5-one], the “% CAF @ 10 μM,1 h” value turned out to be 97.5%.

For `C=CC(=O)N1CCN(c2nc(=O)n3c4c(c(-c5c(O)cccc5F)c(Cl)cc24)OC[C@@H]3CN2CCC(F)(F)C2)[C@@H](C)C1` (atropisomer, axis not shown) [Example 228, (3S,10S)-7-((S)-4-acryloyl-2-methylpiperazin-1-yl)-9-chloro-3-((3,3-difluoropyrrolidin-1-yl)methyl)-10-(2-fluoro-6-hydroxyphenyl)-2,3-dihydro-5H-[1,4]oxazino[2,3,4-ij]quinazolin-5-one], the “% CAF @ 10 μM,1 h” value is reported as 98%.

For the compound `C=CC(=O)N1C[C@H](C)N(c2nc(=O)n3c4c(c(-c5c(O)cccc5F)c(Cl)cc24)OC[C@H]3CO)C[C@H]1C` [Example 33, (3R,10S)-7-((2S,5R)-4-acryloyl-2,5-dimethylpiperazin-1-yl)-9-chloro-1-(2-fluoro-6-hydroxyphenyl)-3-(hydroxymethyl)-2H-[1,4]oxazino[2,3,4-ij]quinazolin-5(3H)-one], under setting [1], the “% CAF (60 min)” value is listed as 87.3%.

As to `C=CC(=O)N1C[C@H](C)N(c2nc(=O)n3c4c(c(-c5ccc(F)cc5F)c(Cl)cc24)OC[C@H]3COC[C@H]2CCCN2C)C[C@H]1C` [Example 287, (3R)-7-((2S,5R)-4-acryloyl-2,5-dimethylpiperazin-1-yl)-9-chloro-10-(2,4-difluorophenyl)-3-((((R)-1-methylpyrrolidin-2-yl)methoxy)methyl)-2H-[1,4]oxazino[2,3,4-ij]quinazolin-5(3H)-one], the “% CAF @ 10 μM,1 h” value was found to be 91.6%.

As for `C=CC(=O)N1C[C@H](C)N(c2nc(=O)n3c4c(c(-c5c(C)ccc6[nH]ncc56)c(Cl)cc24)OC[C@@H]3CCCN2C3CCC2COC3)C[C@H]1C` [Example 282, (3S,10R)-3-(3-(3-oxa-8-azabicyclo[3.2.1]octan-8-yl)propyl)-7-((2S,5R)-4-acryloyl-2,5-dimethylpiperazin-1-yl)-9-chloro-10-(5-methyl-1H-indazol-4-yl)-2,3-dihydro-5H-[1,4]oxazino[2,3,4-ij]quinazolin-5-one], the “% CAF @ 10 μM,1 h” value came out at 86%.

For the compound `C=C(F)C(=O)N1CCN(c2nc(=O)n3c4c(c(-c5c(O)cccc5F)c(Cl)cc24)OCC3)C[C@@H]1CC#N` (atropisomer, axis not shown) [Example 10, 2-((2S)-4-(9-chloro-10-(2-fluoro-6-hydroxyphenyl)-5-oxo-3,5-dihydro-2H-[1,4]oxazino[2,3,4-ij]quinazolin-7-yl)-1-(2-fluoroacryloyl)piperazin-2-yl)acetonitrile], under “Table 1, Pyrimidone Core-Morpholine Unsubstituted”, the “% CAF (60 min)” value came to 8.5%.

Consider `C=CC(=O)N1C[C@H](C)N(c2nc(=O)n3c4c(c(-c5ccc(F)cc5F)c(Cl)cc24)OC[C@@H]3CN2C[C@H]3CC[C@@H](C2)N3C2COC2)C[C@H]1C` [Example 290, (3S)-7-((2S,5R)-4-acryloyl-2,5-dimethylpiperazin-1-yl)-9-chloro-10-(2,4-difluorophenyl)-3-(((1R,5S)-8-(oxetan-3-yl)-3,8-diazabicyclo[3.2.1]octan-3-yl)methyl)-2H-[1,4]oxazino[2,3,4-ij]quinazolin-5(3H)-one], for which the “% CAF @ 10 μM,1 h” value was 92.6%.

Take `C=CC(=O)N1C[C@H](C)N(c2nc(=O)n3c4c(c(-c5ccc(F)cc5F)c(Cl)cc24)OC[C@H]3CCCO)C[C@H]1C` [Example 251, (3R)-7-((2S,5R)-4-acryloyl-2,5-dimethylpiperazin-1-yl)-9-chloro-10-(2,4-difluorophenyl)-3-(3-hydroxypropyl)-2,3-dihydro-5H-[1,4]oxazino[2,3,4-ij]quinazolin-5-one]: the “% CAF @ 10 μM,1 h” value was found to be 85.3%.

In the case of `C=CC(=O)N1CCN(c2nc(=O)n3c4c(c(-c5c(O)cccc5F)c(Cl)cc24)OC[C@@H]3CO)[C@@H](C)C1` (single isomer, unassigned) [Example 24], the “% CAF (60 min)” value under setting [1] was 0%.

For `C=CC(=O)N1C[C@H](C)N(c2nc(=O)n3c4c(c(-c5c(F)ccc6[nH]cnc56)ccc24)OCC3)C[C@H]1C` [Example 201, 7-((2S,5R)-4-acryloyl-2,5-dimethylpiperazin-1-yl)-10-(5-fluoro-1H-benzo[d]imidazol-4-yl)-2,3-dihydro-5H-[1,4]oxazino[2,3,4-ij]quinazolin-5-one], the “% CAF @ 10 μM,1 h” value came out at 0%.

On to `C=CC(=O)N1C[C@H](C)N(c2nc(=O)n3c4c(c(-c5ccc(F)cc5F)c(Cl)cc24)OC[C@@H]3COC2CCN(C)C2)C[C@H]1C` (stereo in doubt) [Example 313, (3S)-7-((2S,5R)-4-acryloyl-2,5-dimethylpiperazin-1-yl)-9-chloro-10-(2,4-difluorophenyl)-3-((((S)-1-methylpyrrolidin-3-yl)oxy)methyl)-2,3-dihydro-5H-[1,4]oxazino[2,3,4-ij]quinazolin-5-one], for which the “% CAF @ 10 μM,1 h” value is on record as 66.1%.

`C=CC(=O)N1C[C@H](C)N(c2nc(=O)n3c4c(c(-c5ccc(F)cc5F)c(Cl)cc24)OC[C@@H]3COC2CCN(C)C2)C[C@H]1C` (stereo in doubt) [Example 336, (3S)-7-((2S,5R)-4-acryloyl-2,5-dimethylpiperazin-1-yl)-9-chloro-10-(2,4-difluorophenyl)-3-((((S)-1-methylpyrrolidin-3-yl)oxy)methyl)-2H-[1,4]oxazino[2,3,4-ij]quinazolin-5(3H)-one]: the “% CAF @ 10 μM,1 h” value came to 79%.

As to `C=CC(=O)N1C[C@H](C)N(c2nc(=O)n3c4c(c(-c5c(O)cccc5F)c(Cl)cc24)OC[C@@H]3CN2CCOCC2)C[C@H]1C` (atropisomer, axis not shown) [Example 208, (3R,10R)-7-((2S,5R)-4-acryloyl-2,5-dimethylpiperazin-1-yl)-9-chloro-10-(2-fluoro-6-hydroxyphenyl)-3 - (morpholinomethyl)-2,3-dihydro-5H-[1,4]oxazino[2,3,4-ij]quinazolin-5-one], the “% CAF @ 10 μM,1 h” value came out at 0%.
